Among the data in ChEMBL document CHEMBL3233003, “Chromodomain antagonists that target the polycomb-group methyllysine reader protein chromobox homolog 7 (CBX7)” (J Med Chem, 2014) are Kd, IC50 and inhibition values, retold here.

Experiment [1] has as its target T1, Chromobox protein homolog 7 (Homo sapiens, UniProt O95931).
T1 sequence (O95931 whole entry): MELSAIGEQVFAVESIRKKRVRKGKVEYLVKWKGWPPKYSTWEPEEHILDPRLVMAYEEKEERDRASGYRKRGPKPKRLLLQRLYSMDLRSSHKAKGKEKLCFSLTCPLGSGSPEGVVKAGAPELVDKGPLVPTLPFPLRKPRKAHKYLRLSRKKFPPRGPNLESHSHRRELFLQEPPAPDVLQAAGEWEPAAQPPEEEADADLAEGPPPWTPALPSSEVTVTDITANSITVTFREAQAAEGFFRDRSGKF
The experiment can be described thus: Binding affinity to CBX7 (unknown origin) by isothermal titration calorimetry assay.

The target of experiment [2] is Chromobox protein homolog 1 (Homo sapiens, UniProt P83916). The experiment can be described thus: Binding affinity to CBX1 (unknown origin) by isothermal titration calorimetry assay.
The target in experiment [3] is T1, Chromobox protein homolog 7. The experiment can be described thus: (§1) Displacement of FITC-labeled H3K27me3 from CBX7 (unknown origin) after 15 mins by fluorescence polarization assay.
For experiment [4], the target named is T2, E3 SUMO-protein ligase CBX4 (Homo sapiens, UniProt O00257).
T2 sequence (O00257 whole entry): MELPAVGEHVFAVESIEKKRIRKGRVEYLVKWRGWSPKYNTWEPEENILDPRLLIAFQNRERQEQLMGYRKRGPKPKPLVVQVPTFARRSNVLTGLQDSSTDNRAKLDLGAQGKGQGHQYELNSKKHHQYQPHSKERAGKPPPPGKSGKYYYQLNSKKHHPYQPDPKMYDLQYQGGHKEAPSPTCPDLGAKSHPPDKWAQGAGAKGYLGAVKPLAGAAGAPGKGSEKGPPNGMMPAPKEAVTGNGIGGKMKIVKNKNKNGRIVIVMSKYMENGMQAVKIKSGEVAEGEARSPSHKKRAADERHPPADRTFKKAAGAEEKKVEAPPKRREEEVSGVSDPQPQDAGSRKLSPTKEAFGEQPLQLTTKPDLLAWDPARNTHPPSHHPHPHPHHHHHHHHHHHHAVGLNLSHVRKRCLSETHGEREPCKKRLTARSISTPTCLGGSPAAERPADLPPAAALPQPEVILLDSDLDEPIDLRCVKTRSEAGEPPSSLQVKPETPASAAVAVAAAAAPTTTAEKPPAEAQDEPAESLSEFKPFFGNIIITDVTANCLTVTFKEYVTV
The experiment can be described thus: Binding affinity to CBX4 (unknown origin) by isothermal titration calorimetry assay.

The target in experiment [5] is T3, Chromobox protein homolog 8 (Homo sapiens, UniProt Q9HC52).
T3 sequence (Q9HC52 whole entry): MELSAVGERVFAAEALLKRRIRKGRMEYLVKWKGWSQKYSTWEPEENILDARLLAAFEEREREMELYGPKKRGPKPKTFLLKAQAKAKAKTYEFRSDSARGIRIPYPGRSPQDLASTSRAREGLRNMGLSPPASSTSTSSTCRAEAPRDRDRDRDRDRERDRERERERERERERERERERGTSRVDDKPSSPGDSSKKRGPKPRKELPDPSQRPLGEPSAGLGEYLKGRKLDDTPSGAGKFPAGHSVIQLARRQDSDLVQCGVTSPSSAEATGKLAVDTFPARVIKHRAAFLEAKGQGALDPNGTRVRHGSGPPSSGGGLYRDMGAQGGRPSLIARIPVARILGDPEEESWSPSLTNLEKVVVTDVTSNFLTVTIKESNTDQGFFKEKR
The experiment can be described thus: Binding affinity to CBX8 (unknown origin) by isothermal titration calorimetry assay.

Experiment [6] has as its target T4, Chromobox protein homolog 7 (Homo sapiens) (UniProt O95931).
T4 sequence (whole entry): T1 sequence (O95931 whole entry)
Described as §1.

The source made the active and inactive calls. The calls are words filed in the database; no cut-off is given here. Starred links: 1 amine or outer side, 2 acyl side, 3 side chain; linkers in the order of their positions; H or OH if unused. Non-standard residues stand in square brackets, D forms with d. Residues, ends and D or L forms follow the SMILES beside them. *: point of attachment. Benzoyl(4-CO2Me) = COC(=O)c1ccc(C(=O)*)cc1; Lys(Me3) = C[N+](C)(C)CCCC[C@H](N)C(=O)O; Benzoyl(4-Br) = O=C(c1ccc(Br)cc1)*; Ethylenediamine = C(CN[*:2])N[*:1]; Gly(cPent) = N[C@H](C(=O)O)C1CCCC1; NHCH(CH2OH)2 = OCC(CO)N* Bounds are passed on as bounds.

Sequence of Chromobox protein homolog 1 (P83916 whole entry): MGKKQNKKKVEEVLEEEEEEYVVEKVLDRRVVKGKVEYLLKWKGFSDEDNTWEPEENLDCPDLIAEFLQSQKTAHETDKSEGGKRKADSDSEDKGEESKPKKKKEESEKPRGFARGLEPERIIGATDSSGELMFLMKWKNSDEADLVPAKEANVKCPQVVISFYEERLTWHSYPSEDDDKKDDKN

With `CC(=O)N[C@@H](Cc1ccccc1)C(=O)N[C@@H](C)C(=O)N[C@@H](CC(C)C)C(=O)N[C@@H](CCCC[N+](C)(C)C)C(=O)N[C@@H](CO)C(N)=O`, the Kd amounted to 2 µM in experiment [1], 43 µM in experiment [2], 3.7 µM in experiment [4] and 14.2 µM in experiment [5]. The IC50 in experiment [3] was determined as 11 µM.
For the compound `CC(=O)N[C@@H](Cc1ccccc1)C(=O)N[C@@H](C)C(=O)N[C@@H](CC(C)C)C(=O)N[C@@H](CCCC[N+](C)(C)C)C(=O)N[C@H](CO)C(N)=O`, the Kd in experiment [1] is 5.4 µM; in experiment [5], 15 µM. In addition, in experiment [3], the half-maximal inhibitory concentration (IC50) came out at 9 µM.
Consider `C[C@H](NC(=O)Cc1ccccc1)C(=O)N[C@H](C(=O)N[C@@H](CCCC[N+](C)(C)C)C(=O)NC(CO)CO)C1CCCC1`, for which the results for the Kd in experiment [1] and in experiment [5] were 4.1 µM and 15 µM, respectively.
As to `CC(C)C[C@H](NC(=O)[C@H](C)NC(=O)[C@H](Cc1ccccc1)NC(=O)c1ccc(Br)cc1)C(=O)N[C@@H](CCCC[N+](C)(C)C)C(=O)N[C@@H](CO)C(N)=O` ({Benzoyl(4-Br)}-FAL[Lys(Me3)]S-NH2), the Kd in experiment [1] was determined as 0.28 µM; in experiment [5], 1.5 µM. In experiment [3], this compound showed an IC50 of 4.6 µM.
For `C[C@H](NC(=O)[C@H](Cc1ccccc1)NC(=O)c1ccc(Br)cc1)C(=O)N[C@H](C(=O)N[C@@H](CCCC[N+](C)(C)C)C(=O)NCCN)C1CCCC1` ({Benzoyl(4-Br)}-FA[Gly(cPent)][Lys(Me3)]-Ethylenediamine), the Kd in experiment [1] worked out at 0.22 µM; in experiment [5], 0.48 µM.
Take `COC(=O)c1ccc(C(=O)N[C@@H](Cc2ccccc2)C(=O)N[C@@H](C)C(=O)N[C@H](C(=O)N[C@@H](CCCC[N+](C)(C)C)C(=O)NC(CO)CO)C2CCCC2)cc1` ({Benzoyl(4-CO2Me)}-FA[Gly(cPent)][Lys(Me3)]-{NHCH(CH2OH)2}): the Kd was 0.2 µM in experiment [1], above 500 µM in experiment [2], 0.29 µM in experiment [4] and 1.89 µM in experiment [5].
As for `COC(=O)c1ccc(C(=O)N[C@@H](Cc2ccccc2)C(=O)N[C@@H](C)C(=O)N[C@H](C(=O)N[C@@H](CCCC[N+](C)(C)C)C(=O)N[C@@H](CO)C(N)=O)C2CCCC2)cc1` ({Benzoyl(4-CO2Me)}-FA[Gly(cPent)][Lys(Me3)]S-NH2), the Kd in experiment [1] worked out at 0.2 µM; in experiment [5], 1.78 µM.
Consider Ac-FALKS-NH2, for which the inhibition result in experiment [6] was “inactive”.
